Results as given in ChEMBL document CHEMBL4177767, “Discovery of N2-(4-Amino-cyclohexyl)-9-cyclopentyl- N6-(4-morpholin-4-ylmethyl-phenyl)- 9H-purine-2,6-diamine as a Potent FLT3 Kinase Inhibitor for Acute Myeloid Leukemia with FLT3 Mutations” (J Med Chem, 2018).
Active and inactive are the calls of the source. The rule behind the calls is not given here.

Experiments:
MV4-11 [1] = test: Cell cycle arrest in human MV4-11 cells assessed as accumulation at G1 phase at 10 nM after 24 hrs by propidium iodide staining-based flow cytometric method (reference value: 56%); type: functional
[2] = molecular target: MAP kinase-interacting serine/threonine-protein kinase 2 (Homo sapiens) (UniProt Q9HBH9); conditions: 10 nM
Description: Inhibition of full length human N-terminal GST-tagged MNK2 expressed in baculovirus expression system at 10 nM relative to control

HCC827 = test: cells; conditions: Homo sapiens, HCC827, 72 h
[3] = molecular target: High affinity nerve growth factor receptor (Homo sapiens) (UniProt P04629); conditions: 10 nM
Description: Inhibition of human N-terminal GST-tagged TRK cytoplasmic domain expressed in baculovirus expression system at 10 nM relative to control

MOLM-13 = test: cells; conditions: Homo sapiens, MOLM-13, 72 h
[4] = test system: Receptor-type tyrosine-protein kinase FLT3 (Homo sapiens), P36888 [UNDEFINED MUTATION]
Description: Inhibition of FLT3 ITD mutant (unknown origin) transfected in mouse BA/F3 cells assessed as growth inhibition after 72 hrs by calcein AM dye-based fluorescence assay

MV4-11 [5] = test: Cell cycle arrest in human MV4-11 cells assessed as accumulation at S phase at 0.01 nM after 24 hrs by propidium iodide staining-based flow cytometric method (reference value: 28.1%); type: functional
MV4-11 [6] = test: Cell cycle arrest in human MV4-11 cells assessed as accumulation at S phase at 0.1 nM after 24 hrs by propidium iodide staining-based flow cytometric method (reference value: 28.1%); type: functional
[7] = molecular target: Receptor-type tyrosine-protein kinase FLT3 (Homo sapiens, UniProt P36888, ITD); test: biochemical; type: cell-based, Sf9
Description: Inhibition of N-terminal GST/His6-fused recombinant human FLT3 (R571 to S993 residues) ITD mutant expressed in Sf9 insect cells using poly (Ala,Glu,Lys,Tyr) 6:2:5:1 hydrobromide as substrate in presence of [gamma-33P]ATP

Rattus norvegicus [8] = test: Toxicity in Wistar rat assessed as pathological macroscopic changes at 200 mg/kg, po after 15 days; type: organism-based; conditions: in vivo, 360 h
Mus musculus [9] = species on record: Mus musculus; test: animal or person; conditions: MV4-11, ip, 2 h, read-out: INH
MV4-11 [10] = test: Induction of apoptosis in human MV4-11 cells assessed as decrease in Mcl-1 levels at 10 to 100 nM after 24 hrs by immunoblot method; type: functional, cell-based
[11] = molecular target: Calcium/calmodulin-dependent protein kinase type II subunit gamma (Homo sapiens) (UniProt Q13555); conditions: 10 nM
Description: Inhibition of full length human N-terminal GST-tagged CAMK2gamma expressed in baculovirus expression system at 10 nM relative to control

[12] = molecular target: Dual specificity protein kinase CLK1 (Homo sapiens) (UniProt P49759); conditions: 10 nM
Description: Inhibition of human N-terminal GST-tagged CLK1 catalytic domain expressed in baculovirus expression system at 10 nM relative to control

[13] = test system: Receptor-type tyrosine-protein kinase FLT3 (Homo sapiens), P36888 [UNDEFINED MUTATION]; conditions: MV4-11, at 0.01 to 100 nM
Description: Inhibition of FLT3 ITD mutant in human MV4-11 cells assessed as decrease in AKT phosphorylation at S473 at 0.01 to 100 nM after 1 hr by immunoblot analysis

[14] = molecular target: Calcium/calmodulin-dependent protein kinase type II subunit delta (Homo sapiens) (UniProt Q13557); conditions: 10 nM
Description: Inhibition of full length human N-terminal GST-tagged CaMK2delta expressed in baculovirus expression system at 10 nM relative to control

[15] = molecular target: Tyrosine-protein kinase Yes (Homo sapiens) (UniProt P07947); conditions: 10 nM
Description: Inhibition of human full length N-terminal GST-tagged Yes expressed in baculovirus expression system at 10 nM relative to control

MV4-11 [16] = test: Cell cycle arrest in human MV4-11 cells assessed as accumulation at G2/M phase at 100 nM after 24 hrs by propidium iodide staining-based flow cytometric method (reference value: 15.9%); type: functional
MV4-11 [17] = test: Cell cycle arrest in human MV4-11 cells assessed as accumulation at G1 phase at 0.01 nM after 24 hrs by propidium iodide staining-based flow cytometric method (reference value: 56%); type: functional
[18] = molecular target: Serine/threonine-protein kinase SIK1 (Homo sapiens) (UniProt P57059); conditions: 10 nM
Description: Inhibition of full length human N-terminal GST-tagged SIK expressed in baculovirus expression system at 10 nM relative to control

MV4-11 [19] = test: Cell cycle arrest in human MV4-11 cells assessed as accumulation at sub-G1 phase at 0.01 nM after 24 hrs by propidium iodide staining-based flow cytometric method (reference value: 9.2%); type: functional
MV4-11 [20] = test: Cell cycle arrest in human MV4-11 cells assessed as accumulation at S phase at 100 nM after 24 hrs by propidium iodide staining-based flow cytometric method (reference value: 28.1%); type: functional
[21] = test system: Mast/stem cell growth factor receptor Kit (Homo sapiens), P10721 [D816V]; conditions: 10 nM
Description: Inhibition of human N-terminal GST-tagged KIT D816V mutant cytoplasmic domain expressed in baculovirus expression system at 10 nM relative to control

MV4-11 [22] = test: Cell cycle arrest in human MV4-11 cells assessed as accumulation at G1 phase at 100 nM after 24 hrs by propidium iodide staining-based flow cytometric method (reference value: 56%); type: functional
in vitro [23] = conditions: mouse, BA/F3 cells
Rattus norvegicus [24] = test: Toxicity in Wistar rat assessed as mortality at 100 mg/kg, iv measured over 15 days; type: organism-based; conditions: in vivo, 360 h
MV4-11 [25] = test: Cell cycle arrest in human MV4-11 cells assessed as accumulation at G1 phase at 0.1 nM after 24 hrs by propidium iodide staining-based flow cytometric method (reference value: 56%); type: functional
MV4-11 [26] = test: Cell cycle arrest in human MV4-11 cells assessed as accumulation at G2/M phase at 0.1 nM after 24 hrs by propidium iodide staining-based flow cytometric method (reference value: 15.9%); type: functional
MCF7 = test: cells; conditions: Homo sapiens, MCF7, 72 h
[27] = molecular target: Activated CDC42 kinase 1 (Homo sapiens) (UniProt Q07912); conditions: 10 nM
Description: Inhibition of human N-terminal GST-tagged ACK catalytic domain expressed in baculovirus expression system at 10 nM relative to control

MV4-11 [28] = test: Cell cycle arrest in human MV4-11 cells assessed as accumulation at S phase at 10 nM after 24 hrs by propidium iodide staining-based flow cytometric method (reference value: 28.1%); type: functional
K562 = test: Induction of apoptosis in human K562 cells assessed as increase in caspase-3/7 activity using Ac-DEVD-AMC substrate after 24 hrs by fluorescence assay; type: functional, cell-based
[29] = molecular target: Receptor-type tyrosine-protein kinase FLT3 (Homo sapiens) (UniProt P36888); test: Inhibition of human N-terminal GST-tagged FLT3 cytoplasmic domain expressed in baculovirus expression system at 10 nM
MV4-11 [30] = test: Cell cycle arrest in human MV4-11 cells assessed as accumulation at S phase at 1 nM after 24 hrs by propidium iodide staining-based flow cytometric method (reference value: 28.1%); type: functional
MV4-11 [31] = test: Cell cycle arrest in human MV4-11 cells assessed as accumulation at sub-G1 phase at 10 nM after 24 hrs by propidium iodide staining-based flow cytometric method (reference value: 9.2%); type: functional
[32] = test system: Receptor-type tyrosine-protein kinase FLT3 (Homo sapiens), P36888 [UNDEFINED MUTATION]; conditions: MV4-11, at 1 nM
Description: Inhibition of FLT3 ITD mutant autophosphorylation at Y589/591 in human MV4-11 cells at 1 nM after 1 hr by immunoblot analysis

in vitro [33] = conditions: human, BJ cells
Mus musculus [34] = test: In vivo inhibition of FLT3 ITD mutant in human MV4-11 cells xenografted in athymic nu/nu mouse assessed as decrease in STAT5 phosphorylation at Y694 at 10 mg/kg, ip after 24 hrs by immunoblot method relative to control; type: functional; conditions: MV4-11, ip
MV4-11 [35] = test: Cell cycle arrest in human MV4-11 cells assessed as accumulation at sub-G1 phase at 1 nM after 24 hrs by propidium iodide staining-based flow cytometric method (reference value: 9.2%); type: functional

Sequence of Receptor-type tyrosine-protein kinase FLT3 (Homo sapiens), P36888 [UNDEFINED MUTATION] (P36888 whole entry, looked up, stated change not applied): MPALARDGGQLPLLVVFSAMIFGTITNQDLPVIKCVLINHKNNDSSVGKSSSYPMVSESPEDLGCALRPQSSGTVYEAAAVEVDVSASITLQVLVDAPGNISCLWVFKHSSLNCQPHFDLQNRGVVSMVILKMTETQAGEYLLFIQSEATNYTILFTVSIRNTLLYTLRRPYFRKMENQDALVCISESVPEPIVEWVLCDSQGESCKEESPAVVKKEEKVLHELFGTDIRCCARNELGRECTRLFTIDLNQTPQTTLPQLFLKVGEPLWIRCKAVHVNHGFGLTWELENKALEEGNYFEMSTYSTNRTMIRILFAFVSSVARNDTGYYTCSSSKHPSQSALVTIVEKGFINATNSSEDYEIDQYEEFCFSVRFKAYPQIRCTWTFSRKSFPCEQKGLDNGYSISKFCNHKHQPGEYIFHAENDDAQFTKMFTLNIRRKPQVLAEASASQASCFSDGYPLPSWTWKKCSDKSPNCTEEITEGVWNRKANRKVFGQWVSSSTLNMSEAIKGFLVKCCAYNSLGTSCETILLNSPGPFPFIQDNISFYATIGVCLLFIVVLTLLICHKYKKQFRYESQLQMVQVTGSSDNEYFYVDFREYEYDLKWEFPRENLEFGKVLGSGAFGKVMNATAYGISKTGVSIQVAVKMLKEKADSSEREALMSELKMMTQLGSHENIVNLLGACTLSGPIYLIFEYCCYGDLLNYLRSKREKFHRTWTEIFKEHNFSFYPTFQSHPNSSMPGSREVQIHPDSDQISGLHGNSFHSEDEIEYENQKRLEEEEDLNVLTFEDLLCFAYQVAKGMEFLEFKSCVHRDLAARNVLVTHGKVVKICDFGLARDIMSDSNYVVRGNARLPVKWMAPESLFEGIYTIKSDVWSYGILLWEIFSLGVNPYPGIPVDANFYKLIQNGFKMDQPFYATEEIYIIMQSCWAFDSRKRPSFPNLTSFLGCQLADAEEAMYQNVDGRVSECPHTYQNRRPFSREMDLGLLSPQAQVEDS
Sequence of Activated CDC42 kinase 1 (Homo sapiens) (Q07912 whole entry, looked up): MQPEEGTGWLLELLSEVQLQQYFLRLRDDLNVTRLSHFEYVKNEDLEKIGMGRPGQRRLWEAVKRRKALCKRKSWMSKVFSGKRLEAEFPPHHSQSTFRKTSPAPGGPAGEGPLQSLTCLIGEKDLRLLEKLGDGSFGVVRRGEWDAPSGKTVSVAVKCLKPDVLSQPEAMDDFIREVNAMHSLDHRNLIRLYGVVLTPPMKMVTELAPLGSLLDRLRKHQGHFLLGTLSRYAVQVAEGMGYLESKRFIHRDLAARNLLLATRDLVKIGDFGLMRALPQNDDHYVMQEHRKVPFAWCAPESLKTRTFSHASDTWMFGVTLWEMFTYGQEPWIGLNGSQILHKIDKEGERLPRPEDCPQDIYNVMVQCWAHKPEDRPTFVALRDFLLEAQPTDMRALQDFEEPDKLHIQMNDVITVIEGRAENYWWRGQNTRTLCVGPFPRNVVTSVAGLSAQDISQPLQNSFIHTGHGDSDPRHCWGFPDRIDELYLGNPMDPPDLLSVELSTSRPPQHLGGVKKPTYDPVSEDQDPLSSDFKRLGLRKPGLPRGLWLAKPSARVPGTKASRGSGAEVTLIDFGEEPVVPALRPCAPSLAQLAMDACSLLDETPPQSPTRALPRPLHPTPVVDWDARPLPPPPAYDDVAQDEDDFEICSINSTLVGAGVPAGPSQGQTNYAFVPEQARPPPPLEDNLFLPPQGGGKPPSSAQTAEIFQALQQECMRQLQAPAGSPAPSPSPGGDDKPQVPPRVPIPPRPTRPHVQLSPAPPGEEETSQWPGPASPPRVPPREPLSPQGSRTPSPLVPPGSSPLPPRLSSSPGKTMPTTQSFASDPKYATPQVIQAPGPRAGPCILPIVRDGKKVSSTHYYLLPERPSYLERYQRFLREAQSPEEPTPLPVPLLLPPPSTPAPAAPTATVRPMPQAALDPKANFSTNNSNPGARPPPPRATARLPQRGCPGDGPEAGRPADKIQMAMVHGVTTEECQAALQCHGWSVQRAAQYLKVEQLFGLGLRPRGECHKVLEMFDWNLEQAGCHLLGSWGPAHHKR
Sequence of Calcium/calmodulin-dependent protein kinase type II subunit gamma (Homo sapiens) (Q13555 whole entry): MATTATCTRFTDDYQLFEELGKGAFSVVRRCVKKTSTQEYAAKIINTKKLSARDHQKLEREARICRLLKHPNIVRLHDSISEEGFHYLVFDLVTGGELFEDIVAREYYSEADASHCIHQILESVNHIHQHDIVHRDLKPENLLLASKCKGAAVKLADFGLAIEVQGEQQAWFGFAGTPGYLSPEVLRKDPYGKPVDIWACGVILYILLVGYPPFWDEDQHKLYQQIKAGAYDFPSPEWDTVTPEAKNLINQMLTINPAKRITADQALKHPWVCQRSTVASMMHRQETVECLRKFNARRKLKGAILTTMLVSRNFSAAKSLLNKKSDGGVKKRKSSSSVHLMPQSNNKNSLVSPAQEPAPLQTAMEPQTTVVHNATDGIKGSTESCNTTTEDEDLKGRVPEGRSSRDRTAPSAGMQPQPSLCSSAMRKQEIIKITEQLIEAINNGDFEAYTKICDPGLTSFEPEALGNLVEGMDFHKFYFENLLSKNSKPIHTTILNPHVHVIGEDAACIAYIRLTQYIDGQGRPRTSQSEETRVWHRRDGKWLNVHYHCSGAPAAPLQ
Sequence of MAP kinase-interacting serine/threonine-protein kinase 2 (Homo sapiens) (Q9HBH9 whole entry, looked up): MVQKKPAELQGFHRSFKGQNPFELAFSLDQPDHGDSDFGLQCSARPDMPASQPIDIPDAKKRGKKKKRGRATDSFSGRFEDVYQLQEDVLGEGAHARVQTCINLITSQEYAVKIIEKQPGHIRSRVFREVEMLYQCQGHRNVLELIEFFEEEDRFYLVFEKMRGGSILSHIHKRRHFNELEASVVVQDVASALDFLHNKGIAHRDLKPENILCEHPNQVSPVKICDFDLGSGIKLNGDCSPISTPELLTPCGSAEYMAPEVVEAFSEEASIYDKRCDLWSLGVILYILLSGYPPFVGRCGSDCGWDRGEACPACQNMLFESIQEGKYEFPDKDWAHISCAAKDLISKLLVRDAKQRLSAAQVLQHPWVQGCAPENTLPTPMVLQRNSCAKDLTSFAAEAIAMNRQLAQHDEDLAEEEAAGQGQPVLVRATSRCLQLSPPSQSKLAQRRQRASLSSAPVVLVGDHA
Sequence of Dual specificity protein kinase CLK1 (Homo sapiens) (P49759 whole entry, looked up): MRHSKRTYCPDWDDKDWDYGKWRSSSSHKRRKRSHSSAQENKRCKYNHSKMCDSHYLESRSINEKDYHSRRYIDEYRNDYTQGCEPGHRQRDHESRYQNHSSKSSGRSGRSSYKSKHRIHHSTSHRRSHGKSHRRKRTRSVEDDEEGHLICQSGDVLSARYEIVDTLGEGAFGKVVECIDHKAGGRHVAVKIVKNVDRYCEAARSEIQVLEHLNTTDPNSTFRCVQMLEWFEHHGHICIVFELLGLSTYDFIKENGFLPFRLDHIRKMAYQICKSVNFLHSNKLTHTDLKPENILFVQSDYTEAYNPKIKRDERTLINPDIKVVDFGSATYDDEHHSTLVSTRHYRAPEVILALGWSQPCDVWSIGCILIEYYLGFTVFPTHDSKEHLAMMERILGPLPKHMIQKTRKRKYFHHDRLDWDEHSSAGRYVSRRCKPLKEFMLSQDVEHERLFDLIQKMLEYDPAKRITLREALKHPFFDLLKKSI
Sequence of Receptor-type tyrosine-protein kinase FLT3 (Homo sapiens) (P36888 whole entry, the tested form may be a part): as the sequence (P36888 whole entry, looked up, stated change not applied) above
Sequence of Tyrosine-protein kinase Yes (Homo sapiens) (P07947 2-543 limits assumed): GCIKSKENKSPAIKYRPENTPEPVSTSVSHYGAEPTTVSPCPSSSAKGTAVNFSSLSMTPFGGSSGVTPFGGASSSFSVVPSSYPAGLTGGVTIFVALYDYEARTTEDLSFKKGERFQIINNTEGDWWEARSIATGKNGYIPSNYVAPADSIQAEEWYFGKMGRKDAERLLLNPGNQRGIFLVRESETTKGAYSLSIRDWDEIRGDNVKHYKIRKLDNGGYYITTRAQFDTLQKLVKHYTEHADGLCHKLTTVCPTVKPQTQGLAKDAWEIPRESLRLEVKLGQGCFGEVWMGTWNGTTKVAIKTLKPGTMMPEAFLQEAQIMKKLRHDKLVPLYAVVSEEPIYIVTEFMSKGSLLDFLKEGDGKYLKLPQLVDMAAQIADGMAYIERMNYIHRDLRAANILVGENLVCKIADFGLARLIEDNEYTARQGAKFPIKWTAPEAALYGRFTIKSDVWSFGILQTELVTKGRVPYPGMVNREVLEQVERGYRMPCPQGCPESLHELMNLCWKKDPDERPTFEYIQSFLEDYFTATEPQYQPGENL

N[C@H]1CC[C@H](Nc2nc(Nc3ccc(CN4CCOCC4)cc3)c3ncn(C4CCCC4)c3n2)CC1
Activity (MV4-11 [1]): 96.5%
inhibition [2]: > 90%
GI50 (HCC827): 327 nM
inhibition [3]: > 90%
GI50 (MOLM-13): 1 nM
GI50 [4]: 34 nM
Activity (MV4-11 [5]): 29.9%
Activity (MV4-11 [6]): 28%
IC50 [7]: 3 nM
Activity (Rattus norvegicus [8]): Non-Toxic
inhibition in vivo at 10 mg/kg (Mus musculus [9]): 95%
Activity (MV4-11 [10]): Active
inhibition [11]: > 90%
inhibition [12]: > 90%
inhibition [13]: Active
inhibition [14]: > 90%
inhibition [15]: > 90%
Activity (MV4-11 [16]): 1.2%
Activity (MV4-11 [17]): 5.6%
inhibition [18]: > 90%
Activity (MV4-11 [19]): 9.9%
Activity (MV4-11 [20]): 3.8%
inhibition [21]: > 90%
Activity (MV4-11 [22]): 95%
GI50 at 72 h (in vitro [23]): 1140 nM
Activity (Rattus norvegicus [24]): Non-Toxic
Activity (MV4-11 [25]): 59.7%
Activity (MV4-11 [26]): 12.3%
GI50 (MCF7): 197 nM
inhibition [27]: > 90%
Activity (MV4-11 [28]): 2.7%
Activity (K562): inactive
inhibition [29]: Active
Activity (MV4-11 [30]): 8.6%
Activity (MV4-11 [31]): 42.9%
inhibition [32]: Active
GI50 at 72 h (in vitro [33]): 12700 nM
inhibition in vivo at 10 mg/kg (Mus musculus [34]): 95%
Activity (MV4-11 [35]): 20.4%
